Measurements from PubChem BioAssay (NCI).
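In this assay, cells in 96-well plates receive the compound at five concentrations for 48 hours. Endpoints are linearly interpolated between the surrounding concentrations. TGI denotes the concentration required for complete inhibition of growth.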

Experiments:
Test in all cases: growth of human tumour cells (NCI), 48 h
K-562 leukemia = tested on: K-562 leukemia
LOX IMVI melanoma = tested on: LOX IMVI melanoma
SNB-19 CNS = tested on: SNB-19 CNS
HS 578T breast = tested on: HS 578T breast
HOP-62 NSCLC = tested on: HOP-62 NSCLC
DU-145 prostate = tested on: DU-145 prostate
SW-620 colon = tested on: SW-620 colon
T-47D breast = tested on: T-47D breast
HT29 colon = tested on: HT29 colon
IGROV1 ovarian = tested on: IGROV1 ovarian
UO-31 renal = tested on: UO-31 renal
NCI-H226 lung = tested on: NCI-H226 lung
SF-539 CNS = tested on: SF-539 CNS
SF-295 CNS = tested on: SF-295 CNS
A498 renal = tested on: A498 renal
UACC-257 melanoma = tested on: UACC-257 melanoma
ACHN renal = tested on: ACHN renal
A549 NSCLC = tested on: A549 NSCLC
M14 melanoma = tested on: M14 melanoma
OVCAR-5 ovarian = tested on: OVCAR-5 ovarian
SNB-75 CNS = tested on: SNB-75 CNS
MCF7 breast = tested on: MCF7 breast
MDA-N = tested on: MDA-N
CAKI-1 renal = tested on: CAKI-1 renal
SK-MEL-2 melanoma = tested on: SK-MEL-2 melanoma
PC-3 prostate = tested on: PC-3 prostate
SK-MEL-28 melanoma = tested on: SK-MEL-28 melanoma
SK-OV-3 ovarian = tested on: SK-OV-3 ovarian
RPMI-8226 leukemia = tested on: RPMI-8226 leukemia
MOLT-4 leukemia = tested on: MOLT-4 leukemia
BT-549 breast = tested on: BT-549 breast
TK-10 renal = tested on: TK-10 renal
OVCAR-8 ovarian = tested on: OVCAR-8 ovarian
CCRF-CEM leukemia = tested on: CCRF-CEM leukemia
HCT-15 colon = tested on: HCT-15 colon
SR leukemia = tested on: SR leukemia
KM12 colon = tested on: KM12 colon
U251 CNS = tested on: U251 CNS
OVCAR-3 ovarian = tested on: OVCAR-3 ovarian
HOP-92 NSCLC = tested on: HOP-92 NSCLC
EKVX NSCLC = tested on: EKVX NSCLC
NCI-H23 lung = tested on: NCI-H23 lung
SK-MEL-5 melanoma = tested on: SK-MEL-5 melanoma
786-0 renal = tested on: 786-0 renal
NCI-H522 lung = tested on: NCI-H522 lung
COLO 205 colon = tested on: COLO 205 colon
HL-60(TB) leukemia = tested on: HL-60(TB) leukemia
RXF 393 renal = tested on: RXF 393 renal
MDA-MB-435 = tested on: MDA-MB-435
NCI/ADR-RES ovarian = tested on: NCI/ADR-RES ovarian
SF-268 CNS = tested on: SF-268 CNS
SN12C renal = tested on: SN12C renal
MDA-MB-231 breast = tested on: MDA-MB-231 breast
MALME-3M melanoma = tested on: MALME-3M melanoma
HCT-116 colon = tested on: HCT-116 colon
OVCAR-4 ovarian = tested on: OVCAR-4 ovarian

## FC(F)(F)c1cc(N(C2c3ccccc3C=Cc3ccccc32)P(Cl)Cl)cc(C(F)(F)F)c1
K-562 leukemia
  TGI: 42.7 µM
LOX IMVI melanoma
  TGI: 36.1 µM
SNB-19 CNS
  TGI: 56.8 µM
HS 578T breast
  TGI: 79.5 µM
HOP-62 NSCLC
  TGI: 37.3 µM
DU-145 prostate
  TGI: 40.3 µM
SW-620 colon
  TGI: 82.6 µM
T-47D breast
  TGI: 56.4 µM
HT29 colon
  TGI: > 100 µM
IGROV1 ovarian
  TGI: 92.3 µM
UO-31 renal
  TGI: 33.4 µM
NCI-H226 lung
  TGI: 38.7 µM
SF-539 CNS
  TGI: 66.6 µM
SF-295 CNS
  TGI: 41.8 µM
A498 renal
  TGI: 56.8 µM
UACC-257 melanoma
  TGI: 39.9 µM
ACHN renal
  TGI: 33.9 µM
A549 NSCLC
  TGI: 44.1 µM
M14 melanoma
  TGI: 58 µM
OVCAR-5 ovarian
  TGI: 49.6 µM
SNB-75 CNS
  TGI: 61.7 µM
MCF7 breast
  TGI: 50 µM
MDA-N
  TGI: 76.9 µM
CAKI-1 renal
  TGI: 59 µM
SK-MEL-2 melanoma
  TGI: 37 µM
PC-3 prostate
  TGI: 78.1 µM
SK-MEL-28 melanoma
  TGI: 87.8 µM
SK-OV-3 ovarian
  TGI: 69.8 µM
RPMI-8226 leukemia
  TGI: 51.2 µM
MOLT-4 leukemia
  TGI: 54.4 µM
BT-549 breast
  TGI: 23 µM
TK-10 renal
  TGI: > 100 µM
OVCAR-8 ovarian
  TGI: 35.7 µM
CCRF-CEM leukemia
  TGI: 82.3 µM
HCT-15 colon
  TGI: 45.5 µM
SR leukemia
  TGI: 46.9 µM
KM12 colon
  TGI: 49.4 µM
U251 CNS
  TGI: 33.8 µM
OVCAR-3 ovarian
  TGI: 31.1 µM
HOP-92 NSCLC
  TGI: 30.4 µM
EKVX NSCLC
  TGI: 38.6 µM
NCI-H23 lung
  TGI: 97.7 µM
SK-MEL-5 melanoma
  TGI: 32.7 µM
786-0 renal
  TGI: 35.5 µM
NCI-H522 lung
  TGI: 28.6 µM
COLO 205 colon
  TGI: 51.6 µM
HL-60(TB) leukemia
  TGI: 81.6 µM
RXF 393 renal
  TGI: 27.1 µM
MDA-MB-435
  TGI: 64.9 µM
NCI/ADR-RES ovarian
  TGI: 21.6 µM
SF-268 CNS
  TGI: 33.8 µM
SN12C renal
  TGI: 32.7 µM
MDA-MB-231 breast
  TGI: 35 µM
MALME-3M melanoma
  TGI: 36 µM
HCT-116 colon
  TGI: 40.3 µM
OVCAR-4 ovarian
  TGI: 42.9 µM
